This note sets out measurements from patent US4631274A, “Halovinyl cephem compounds” (Fujisawa Pharmceutical Co., Ltd., priority 1984, dated 1986).

Data set [1] concerns Proteus mirabilis 18. Briefly: In vitro antibacterial activity, two-fold agar-plate dilution method (MIC). The conditions noted are these: HI-agar, 37° C., 20 hours, read-out: MIC (minimal inhibitory concentration). The format is cell-based. The procedure: (§1) In vitro antibacterial activity was determined by the two-fold agar-plate dilution method as described below.
(§2) One loopful of an overnight culture of each test strain in Trypticase-soy broth (10^8 viable cells per ml) was streaked on heart infusion agar (HI-agar) containing graded concentrations of representative test compound, and the minimal inhibitory concentration (MIC) was expressed in terms of μg/ml after incubation at 37° C. for 20 hours.

The test system of data set [2] is Proteus vulgaris 2. Described as above. The conditions noted are these: HI-agar, 37° C., 20 hours, read-out: MIC (minimal inhibitory concentration). The format is cell-based. The procedure: as §1, §2
The nature of data set [3]: Urinary excretion in rats after oral administration. The format is in vivo. As to conditions: rat, urine, 20 mg/kg, bioassay, read-out: Urinary recovery in 24 hours (%).
Procedure: Urine of rats was collected with a urine collector at 0 to 6, and 6 to 24 hours after oral administration of 20 mg/kg of the test antibiotic. The antibiotic levels in the urine samples were bioassayed with the standard solution prepared with M/15 phosphate buffer (pH 7.0) and the urinary recovery in 24 hours was calculated.
Data set [4] can be described thus: in vivo. As to conditions: rat, po, 20 mg/kg.
Procedure: Rats anesthetized with pentobarbital were fixed in supine position, and a polyethylene cannula was inserted into the bile duct. Bile samples were collected at 0 to 3, 3 to 6, and 6 to 24 hours after oral administration of 20 mg/kg of the test antibiotic. The antibiotic levels in the bile samples were bioassayed with the standard solution prepared with M/15 phosphate buffer (pH 7.0) and the biliary recovery in 24 hours were calculated.

The structures appear in SMILES notation.

Turning to `Nc1nc(/C(=N/OCC(=O)O)C(=O)NC2C(=O)N3C(C(=O)O)=C(/C=C/Cl)CSC23)cs1` (stereo not drawn) [A, 7-[2-Carboxymethoxyimino-2-(2-aminothiazol-4-yl)acetamido]-3-[(E)-2-chlorovinyl]-3-cephem-4-carboxylic acid (syn isomer)], the MIC in data set [1] and in data set [2] was under 0.025 µg/mL in each case. Further, the dose excreted at 24 h in data set [3] is 51.1%; in data set [4] it was 24.2%.
